Drawing on PubChem BioAssay AID1259411 (Chemical Carcinogenesis Research Information System (CCRIS), 2018), this text covers carcinogen call for eight compounds.

Activity calls are given as the source filed them. The rule behind the calls is not given here.

For the data set, the system named is rodent carcinogenicity bioassays, tumor incidence. As to the kind of experiment: CCRIS carcinogenicity studies. An outline of the steps:
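NCI-built, expert-reviewed records of carcinogenicity and related test outcomes (mutagenicity, tumor promotion/inhibition) compiled from published and report sources, historical span 1985-2011, not updated.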

In the case of `CC1(C)[C@H](C(=O)O[C@H](C#N)c2cccc(Oc3ccccc3)c2)[C@@H]1C=C(Br)Br`, the carcinogen call (Species: MOUSE, Strain/Sex: C57BL/FEMALE, Route: INTRAGASTRIC, Dose: 0, 1, 4, 8 MG/KG IN ARACHIS OIL 5 D/WK FOR 104 WK (STUDY DURATION: 120 WK), Dose: 0, 1, 4, 8 MG/KG IN ARACHIS OIL 5 D/WK FOR 104 WK (STUDY DURATION: 120 WK)) was “inactive; negative”; the carcinogen call (Species: MOUSE, Strain/Sex: C57BL/MALE, Route: INTRAGASTRIC, Dose: 0, 1, 4, 8 MG/KG IN ARACHIS OIL 5 D/WK FOR 104 WK (STUDY DURATION: 120 WK), Dose: 0, 1, 4, 8 MG/KG IN ARACHIS OIL 5 D/WK FOR 104 WK (STUDY DURATION: 120 WK)) is “inactive; negative”; the carcinogen call (Species: MOUSE, Strain/Sex: SWISS/MALE, FEMALE, Route: DERMAL, Dose: 0, 1, 2, 4 MG/KG BW IN 200 µL ACETONE 3/WK FOR 32 WK (STUDY DURATION: 32 WK), Dose: 0, 1, 2, 4 MG/KG BW IN 200 µL ACETONE 3/WK FOR 32 WK (STUDY DURATION: 32 WK)) is “inactive; negative”; the carcinogen call (Species: Mouse, Strain/Sex: Crl:CD-1(ICR)BR/Female (50/Group), Route: Oral, Dose: 0, 10, 100, 1000, 2000 ppm in feed for 97 wk, Dose: 0, 10, 100, 1000, 2000 ppm in feed for 97 wk) was “inactive; negative”; the carcinogen call (Species: Mouse, Strain/Sex: Crl:CD-1(ICR)BR/Male (50/Group), Route: Oral, Dose: 0, 10, 100, 1000, 2000 ppm in feed for 97 wk, Dose: 0, 10, 100, 1000, 2000 ppm in feed for 97 wk) is “inactive; negative”; the carcinogen call (Species: RAT, Strain/Sex: BDVI/FEMALE, Route: INTRAGASTRIC, Dose: 0, 3, 6 MG/KG IN ARACHIS OIL 5 D/WK FOR 104 WK (STUDY DURATION: 120 WK), Dose: 0, 3, 6 MG/KG IN ARACHIS OIL 5 D/WK FOR 104 WK (STUDY DURATION: 120 WK), Tumor Site: Type of Lesion: THYROID: ADENOMA) was “active; positive”. In addition, the carcinogen call reads like this: (Species: RAT, Strain/Sex: BDVI/MALE, Route: INTRAGASTRIC, Dose: 0, 3, 6 MG/KG IN ARACHIS OIL 5 D/WK FOR 104 WK (STUDY DURATION: 120 WK), Dose: 0, 3, 6 MG/KG IN ARACHIS OIL 5 D/WK FOR 104 WK (STUDY DURATION: 120 WK), Tumor Site: Type of Lesion: THYROID: ADENOMA) “active; positive”; (Species: Rat, Strain/Sex: Crl:CD(SD)BR/Female (50/Group), Route: Oral, Dose: 0, 25, 125, 500, 800 ppm in feed for 2 yr, Dose: 0, 25, 125, 500, 800 ppm in feed for 2 yr) “inactive; negative”; (Species: Rat, Strain/Sex: Crl:CD(SD)BR/Male (50/Group), Route: Oral, Dose: 0, 25, 125, 500, 800 ppm in feed for 2 yr, Dose: 0, 25, 125, 500, 800 ppm in feed for 2 yr) “inactive; negative”.
With `Cc1ccc([N+](=O)[O-])cc1N`, the carcinogen call is, setting by setting: (Species: MOUSE, Strain/Sex: B6C3F1/FEMALE, Route: ORAL, Dose: 0, 0.12, 0.23% OF DIET, TWA, Dose: 0, 0.12, 0.23% OF DIET, TWA, Tumor Site: Type of Lesion: LIVER: HEPATOCELLULAR CARCINOMA, BLOOD VESSELS: HEMANGIOSARCOMA) “active; positive”; (Species: MOUSE, Strain/Sex: B6C3F1/MALE, Route: ORAL, Dose: 0, 0.12, 0.23% OF DIET, TWA, Dose: 0, 0.12, 0.23% OF DIET, TWA, Tumor Site: Type of Lesion: LIVER: HEPATOCELLULAR CARCINOMA, BLOOD VESSELS: HEMANGIOSARCOMA OR HEMANGIOMA) “active; positive”; (Species: RAT, Strain/Sex: F344/FEMALE, Route: ORAL, Dose: 0, 0.005, 0.01% OF DIET, TWA, Dose: 0, 0.005, 0.01% OF DIET, TWA) “inactive; negative”; (Species: RAT, Strain/Sex: F344/MALE, Route: ORAL, Dose: 0, 0.005, 0.01% OF DIET, TWA, Dose: 0, 0.005, 0.01% OF DIET, TWA) “inactive; negative”.
Regarding `COCc1cnc(C2=NC(C)(C(C)C)C(=O)N2)c(C(=O)O)c1` (stereo not drawn), the carcinogen call reads like this: (Species: Mouse, Strain/Sex: CD-1/Female (55/Group), Route: Oral, Dose: 0, 96, 664, 1348 mg/kg/day of 97.1% imazamox in diet for at least 18 mo, study duration at least 18 mo, Dose: 0, 96, 664, 1348 mg/kg/day of 97.1% imazamox in diet for at least 18 mo, study duration at least 18 mo) “inactive; negative”; (Species: Mouse, Strain/Sex: CD-1/Male (55/Group), Route: Oral, Dose: 0, 73, 535, 1053 mg/kg/day of 97.1% imazamox in diet for at least 18 mo, study duration at least 18 mo, Dose: 0, 73, 535, 1053 mg/kg/day of 97.1% imazamox in diet for at least 18 mo, study duration at least 18 mo) “inactive; negative”; (Species: Rat, Strain/Sex: Sprague-Dawley/Female (65/Group), Route: Oral, Dose: 0, 63, 626, 1284 mg/kg/day of 97.1% imazamox in diet for 24 mo, study duration 24 mo, Dose: 0, 63, 626, 1284 mg/kg/day of 97.1% imazamox in diet for 24 mo, study duration 24 mo) “inactive; negative”; (Species: Rat, Strain/Sex: Sprague-Dawley/Male (65/Group), Route: Oral, Dose: 0, 52, 528, 1068 mg/kg/day of 97.1% imazamox in diet for 24 mo, study duration 24 mo, Dose: 0, 52, 528, 1068 mg/kg/day of 97.1% imazamox in diet for 24 mo, study duration 24 mo) “inactive; negative”.
For the compound `O=[N+]([O-])c1cc(O)c2ccc3cccc4ccc1c2c34`, under “Species: RAT, Strain/Sex: STRAIN-CD/FEMALE, Route: SUBCUTANEOUS, Dose: 0, 63 UMOL (TOTAL DOSE) ADMINISTERED OVER 8 WK BEGINNING WITHIN 24 HR OF BIRTH (STUDY DURATION: 86 WK)”, the carcinogen call is “inactive; negative”.
Regarding `CCNc1nc(Cl)nc(NC(C)(C)C#N)n1`, the carcinogen call by setting is: (Species: Mouse, Strain/Sex: CD/Female (50 per group; 100 per group for controls), Route: Oral, Dose: 0, 10, 25, 1,000 ppm of 98% pure cyanazine in feed for two yr, Dose: 0, 10, 25, 1,000 ppm of 98% pure cyanazine in feed for two yr) “inactive; negative”; (Species: Mouse, Strain/Sex: CD/Male (50 per group; 100 per group for controls), Route: Oral, Dose: 0, 10, 25, 1,000 ppm of 98% pure cyanazine in feed for two yr, Dose: 0, 10, 25, 1,000 ppm of 98% pure cyanazine in feed for two yr) “inactive; negative”; (Species: RAT, Strain/Sex: CRL:CD BR/FEMALE, Route: ORAL, Dose: 0, 1, 5, 25, 50 PPM FOR 104 WK (STUDY DURATION: 104 WK), Dose: 0, 1, 5, 25, 50 PPM FOR 104 WK (STUDY DURATION: 104 WK)) “inactive; negative”.
Turning to `COc1ccc(O)cc1`, the carcinogen call is “active; positive” (Species: RAT, Strain/Sex: F344/FEMALE, Route: ORAL, Dose: 0, 2% IN DIET FOR 104 WK (STUDY DURATION: 104 WK), Tumor Site: Type of Lesion: FORESTOMACH: PAPILLOMA, SQUAMOUS CELL CARCINOMA); “inactive; negative” (Species: RAT, Strain/Sex: F344/MALE, Route: ORAL, Dose: 0, 0.4% IN DIET FOR DURATION OF STUDY (STUDY DURATION: 104 WK)); “active; positive” (Species: RAT, Strain/Sex: F344/MALE, Route: ORAL, Dose: 0, 2% IN DIET FOR 104 WK (STUDY DURATION: 104 WK), Tumor Site: Type of Lesion: FORESTOMACH: PAPILLOMA, SQUAMOUS CELL CARCINOMA).
Consider `Clc1cccc(-c2cc(Cl)cc(Cl)c2)c1`, for which the carcinogen call reads like this: (Species: RAT, Strain/Sex: SPRAGUE-DAWLEY/FEMALE, Route: ORAL, Dose: 0, 50, 100, 200 PPM IN DIET FOR THE DURATION OF STUDY (STUDY DURATION: 24 MO), Dose: 0, 50, 100, 200 PPM IN DIET FOR THE DURATION OF STUDY (STUDY DURATION: 24 MO), Tumor Site: Type of Lesion: LIVER: TUMOR) “active; positive”; (Species: RAT, Strain/Sex: SPRAGUE-DAWLEY/MALE, Route: ORAL, Dose: 0, 50, 100, 200 PPM IN DIET FOR THE DURATION OF STUDY (STUDY DURATION: 24 MO), Dose: 0, 50, 100, 200 PPM IN DIET FOR THE DURATION OF STUDY (STUDY DURATION: 24 MO)) “inactive; negative”.
Take `O[C@H]1[C@@H]2O[C@@H]2C=C[C@@H]1O`: the carcinogen call (Species: MOUSE, Strain/Sex: SWISS/FEMALE, Route: INTRAPERITONEAL, Dose: 0, 2.7, 13.7 UMOL ADMINISTERED AS 3 UNEQUAL DOSES (1/7, 2/7, AND 4/7 OF THE TOTAL DOSE) OVER A 2-WK PERIOD (STUDY DURATI, Dose: 0, 2.7, 13.7 UMOL ADMINISTERED AS 3 UNEQUAL DOSES (1/7, 2/7, AND 4/7 OF THE TOTAL DOSE) OVER A 2-WK PERIOD (STUDY DURATI) was “inactive; negative” and the carcinogen call (Species: MOUSE, Strain/Sex: SWISS/MALE, Route: INTRAPERITONEAL, Dose: 0, 2.7, 13.7 UMOL ADMINISTERED AS 3 UNEQUAL DOSES (1/7, 2/7, AND 4/7 OF THE TOTAL DOSE) OVER A 2-WK PERIOD (STUDY DURATI, Dose: 0, 2.7, 13.7 UMOL ADMINISTERED AS 3 UNEQUAL DOSES (1/7, 2/7, AND 4/7 OF THE TOTAL DOSE) OVER A 2-WK PERIOD (STUDY DURATI) was “inactive; negative”.
